# Measured values published in publication PMC9496819 (Cancers, 2022).
# What was measured:
# [1] = tested on: OVCAR8 PTX R P cells; assay: Presto Blue cell viability assay, single drugs and Paclitaxel combinations (Chou–Talalay, Bliss, HSA analysis); conditions: for Cellular viability (%) Media: alone or combined
# Protocol: (§1) To determine the effect of single and combination drug treatments on the cellular viability of cell lines, a resazurin-based assay—Presto Blue (PB)—was performed. Briefly, 5 × 10^3 cells/well were seeded into a 96-well plate in complete media, incubated at 37 °C and 5% CO2 and allowed to adhere overnight prior to drug exposure. After 24 h, cells were exposed to increasing concentrations of drugs and incubated under the same conditions. After 48 h, culture medium was removed, and 50 μL/well of PrestoBlue^TM Cell Viability Reagent 1× (ThermoFisher Scientific) was added. Cells were incubated for 45 min, protected from light, at 37 °C and 5% CO2.
# (§2) The IC50 values were first obtained for each drug alone for OVCAR8, OVCAR8 PTX R P and HOSE6.3 cell lines. […] A mutually exclusive model, assuming that drugs act through […] mechanisms, was used for this analysis. […] The CI is a quantitative representation of pharmacological interactions (i.e., CI < 1, synergism; =1, additive interactions; and >1, antagonism), plotted on y-axis as a function of effect level (Fa) on the x-axis to assess drug synergism between drug combinations. Additionally, we estimated the expected drug combination responses based on the Bliss Independence and Highest Single Agent (HSA) reference models using SynergyFinder 2.0 Software. Positive and negative synergy score values denote synergy and antagonism, respectively. The cNMF algorithm implemented in SynergyFinder 2.0 was used for estimation of outlier measurements.
# [2] = tested on: OVCAR8 cells; assay: as above; conditions: for Cellular viability (%) Media: OVCAR8, 48 h, alone or combined
# Protocol: as §1, §2
# [3] = tested on: HOSE6.3 cells; assay: Presto Blue cell viability assay in non-tumoral cells, single drugs and Paclitaxel combinations (Chou–Talalay, Bliss, HSA analysis); conditions: for IC50 (in words) / IC50: 48 h; for IC50 (in words): considered concentration ranges; for Cellular viability (%) Media: HOSE6.3, 48 h, alone or combined
# Protocol: as §1, §2
# [4] = as above; conditions: human, HOSE6.3 cells (non-tumoral)
# Protocol: as §1, §2
# [5] = OVCAR8 PTX R P, 48 h, 0.25 x IC50 of each drug
# [6] = OVCAR8 PTX R P, 48 h, 0.5 x IC50 of each drug
# [7] = OVCAR8 PTX R P, 48 h, 2 x IC50 of each drug
# [8] = OVCAR8 PTX R P, 48 h, IC50 of each drug
Molecule,"IC50 ([1]; Homo sapiens, OVCAR-8, 48 h)","IC50 ([2]; Homo sapiens, OVCAR-8, 48 h)","IC50 (in words) ([3]; HOSE6.3, single agent)","Cellular viability (%) Media [1, 5]","Cellular viability (%) Media [1, 6]","Cellular viability (%) Media [1, 7]","Cellular viability (%) Media [1, 8]",Cellular viability (%) Media ([2]; 0.25 x IC50 of each drug),Cellular viability (%) Media ([2]; 0.5 x IC50 of each drug),Cellular viability (%) Media ([2]; 2 x IC50 of each drug),Cellular viability (%) Media ([2]; IC50 of each drug),also measured
CN(C)C(=N)N=C(N)N [Metformin],1460 ± 193 µM,1500 ± 169 µM,not obtaining IC50 values in the considered concentration ranges,,,,,,,,,
Ivermectin,,,,81.152%,65.026%,0.966%,47.496%,77.004%,69.934%,0.759%,46.412%,"Cellular viability (%) Media ([1]; OVCAR8 PTX R P, 48 h, 4 x IC50 of each drug): 1.370%; IC50 ([1]; OVCAR8 PTX R P, single agent, 48 h): 15.5 ± 1.86 µM; Cellular viability (%) Media ([2]; 4 x IC50 of each drug): 0.867%; IC50 ([2]; OVCAR8, single agent, 48 h): 16 ± 2.91 µM; Cellular viability (%) Media ([3]; 0.5 x IC50 of each drug): 99.694%; Cellular viability (%) Media ([3]; 2 x IC50 of each drug): 0.539%; Cellular viability (%) Media ([3]; 4 x IC50 of each drug): 0.000%; Cellular viability (%) Media ([3]; IC50 of each drug): 53.462%; IC50 ([3]; HOSE6.3, single agent): 12.6 ± 2.19 µM"

# More lines, main results first:
"IC50 ([1]; Homo sapiens, OVCAR-8, 48 h)","IC50 ([2]; Homo sapiens, OVCAR-8, 48 h)",Molecule,"IC50 (in words) ([3]; HOSE6.3, single agent)","Cellular viability (%) Media [1, 5]","Cellular viability (%) Media [1, 6]","Cellular viability (%) Media [1, 7]","Cellular viability (%) Media [1, 8]",Cellular viability (%) Media ([2]; 0.25 x IC50 of each drug),Cellular viability (%) Media ([2]; 0.5 x IC50 of each drug),Cellular viability (%) Media ([2]; 2 x IC50 of each drug),Cellular viability (%) Media ([2]; IC50 of each drug),also measured
196 ± 20.2 µM,219 ± 13.6 µM,NCCCC(O)(P(=O)(O)O)P(=O)(O)O [Alendronate],not obtaining IC50 values in the considered concentration ranges,,,,,,,,,
35.6 ± 0.48 µM,39.1 ± 3.38 µM,CCC(C)n1ncn(-c2ccc(N3CCN(c4ccc(OCC5COC(Cn6cncn6)(c6ccc(Cl)cc6Cl)O5)cc4)CC3)cc2)c1=O (stereo not drawn) [Itraconazole],,,,,,,,,,IC50 ([3]; Homo sapiens): 38.6 ± 5.11 µM
0.85 ± 0.142 µM,0.801 ± 0.061 µM,O=C(O)C[C@H](O)C[C@H](O)/C=C/c1c(C2CC2)nc2ccccc2c1-c1ccc(F)cc1 [Pitavastatin],not obtaining IC50 values in the considered concentration ranges,59.998%,50.426%,28.330%,45.406%,61.378%,51.912%,27.970%,45.624%,"viability at 48 h, 0.25 x IC50 [4]: 81.8%; viability at 48 h, 0.5 x IC50 [4]: 76.5%; viability at 48 h, 1 x IC50 [4]: 68.5%; viability at 48 h, 2 x IC50 [4]: 65.9%; viability at 48 h, 4 x IC50 [4]: 61.4%"
